Series [1] relates to Frings audiogenic seizure susceptible mice. The class given is in vivo. As to conditions: for ED50: mouse, in vivo.
In series [2] the test system is Frings audiogenic seizure-susceptible mice. The note with it: mouse, in vivo.
Series [3] relates to young (<2 weeks old) mice. Format: in vivo.
For another series, the system named is CF No. 1 mice. The note with it: mouse, in vivo.
The conditions of series [4]: 37° C.; 50 μg/ml.
The subject of series [5] is young (<2 weeks old) mice. The class given is in vivo. The source holds these as a separate data set.
The subject of series [6] is young (<2 weeks old) mice. Format: in vivo. This is another data set of the same source.

“And” between values parts separate entries of the source, which are not always exact repeats. Identical values can stand only once. Like-named read-outs stand apart in the source and are kept apart here. Where no end group is shown, it is not given here. [ ]: non-standard residue; d: D form. Gla = N[C@@H](CC(C(=O)O)C(=O)O)C(=O)O

`CC1(C)O[C@@H]2[C@@H](CO[C@@]3(COS(N)(=O)=O)OC(C)(C)O[C@@H]23)O1` [Topiramate, reference compound] came in with an ED50 in series [1] of over 150 nmol. Also, the “TD50 (rotorod performance, minimal motor impairment)” value in series [2] is given as “no marked”.

In series [1], `Nc1nnc(-c2cccc(Cl)c2Cl)c(N)n1` [Lamotrigine, reference compound] gave an ED50 of 146 nmol. Moreover, in series [2], the “PI (TD50/ED50)” value is listed as over 2.0 and the “TD50 (rotorod performance, minimal motor impairment)” value is given as over 290 nmol.

With `CCC1(c2ccccc2)C(=O)NC(=O)NC1=O` [Phenobarbitol, reference compound], in series [2], the “PI (TD50/ED50)” value stood at 0.5 and the “TD50 (rotorod performance, minimal motor impairment)” value is listed as 68.8 nmol.

The molecule `CCCC(CCC)C(=O)O` [Valproic Acid, reference compound] returned an ED50 in series [1] of 566 nmol. In series [2], the “PI (TD50/ED50)” value is reported as 1.1-2.2.

As to “Conantokin T (GE[Gla][Gla]YQKML[Gla]NLR[Gla]AEVKKNA-NH2; N-terminus assumed; SMILES CSCC[C@H](NC(=O)[C@H](CCCCN)NC(=O)[C@H](CCC(N)=O)NC(=O)[C@H](Cc1ccc(O)cc1)NC(=O)[C@H](CC(C(=O)O)C(=O)O)NC(=O)[C@H](CC(C(=O)O)C(=O)O)NC(=O)[C@H](CCC(=O)O)NC(=O)CN)C(=O)N[C@@H](CC(C)C)C(=O)N[C@@H](CC(C(=O)O)C(=O)O)C(=O)N[C@@H](CC(N)=O)C(=O)N[C@@H](CC(C)C)C(=O)N[C@@H](CCCNC(=N)N)C(=O)N[C@@H](CC(C(=O)O)C(=O)O)C(=O)N[C@@H](C)C(=O)N[C@@H](CCC(=O)O)C(=O)N[C@H](C(=O)N[C@@H](CCCCN)C(=O)N[C@@H](CCCCN)C(=O)N[C@@H](CC(N)=O)C(=O)N[C@@H](C)C(N)=O)C(C)C) [Con T]”, the “Righting Reflex, mice that lost reflex/tested” value in series [3] (30 min) and in series [3] (60 min) was 2/4 throughout. Moreover, in the series with CF No. 1 mice, the “anticonvulsant activity” value was “anticonvulsant activity”. In addition, the “stability in biological media” value in series [4] is “stable in all biological media for up to 4 hours”. Also, the “Catalepsy Test, positive mice/tested” value is on record as 3/4 in series [5] (30 min) and 1/4 in series [5] (60 min). Further, the “#Protected/#Tested” value in series [1] (10 min) is reported as 0/9; in series [1] (20 min), 1/2; in series [1] (30 min), 2/6; in series [1] (60 min), 4/6; in series [1] (240 min) it was 1/6. Also, the “% Protected” value was 0% in series [1] (10 min); 50% in series [1] (20 min); 33% in series [1] (30 min); 67% in series [1] (60 min); 17% in series [1] (240 min). Further, the “Sleepy Test, positive mice/tested” value in series [6] (30 min) and in series [6] (60 min) was 4/4 each time. Besides, in series [2], the “P.I. (TD50/ED50)” value amounted to 13. In series [2], this molecule yielded a TD50 of 0.228 nmols. Further, the “behavioral toxicity (rotorod test)” value in series [2] is reported as “No animals exhibited behavioral toxicity”.

Regarding `NC(=O)OCC(COC(N)=O)c1ccccc1` [Felbamate, reference compound], in series [1] (30 min), the animals protected was 5/8 and 4/8. In addition, in series [2], the “TD50 (rotorod performance, minimal motor impairment)” value is over 630 nmol.

As for `CC(C(O)c1ccc(O)cc1)N1CCC(Cc2ccccc2)CC1` (centres unmarked) [Ifenprodil, reference compound], the ED50 in series [1] is ~ 25 nmols. Moreover, in series [2], the “P.I. (TD50/ED50)” value is reported as under 1 and the TD50 was under 25.

Values taken from patent publication US6277825A (priority 1999, dated 2001).
